Measured values reported in publication PMC9019904, “AD Informer Set: Chemical tools to facilitate Alzheimer's disease drug discovery” (Alzheimer's & Dementia : Translational Research & Clinical …, 2022).

Columns and labels:
[1] = system: BV2 (mouse microglia) cell line; experiment: pHrodo-myelin phagocytosis/cell viability high content imaging assay: phagocytosis signal; type: cell-based; settings: BV2 cells, 10 uM compound, 48 hours treatment, pHrodo-myelin final 20 hours
How it was run: (§1)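 Imaging at high content captured pHrodo-myelin uptake about 22 hours after its addition, alongside a viability read-out from the same cells. Three measurements were derived, with intensity increase marking early apoptosis and decrease marking later apoptosis.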

[2] = system: HMC3 (human microglia) cell line; experiment: as above; type: cell-based; settings: HMC3 cells, 10 uM compound, 48 hours treatment, pHrodo-myelin final 20 hours
How it was run: as §1

[3] = system: BV2 (mouse microglia) cell line; experiment: pHrodo-myelin phagocytosis/cell viability high content imaging assay: viability (cell count, nuclear area, nuclear intensity); settings: for 1. Cell count (% control) / 2. Nuclear Area (% Control) / 3. Nuclear DNA Intensity (% control): BV2 cells, 10 uM compound, 48 hours treatment
How it was run: (§2)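 Viability was read by high-content imaging as cell count per well and nuclear intensity per cell, in murine BV2 and human HMC3 microglial lines. Cells received a single 10 μM compound dose for 48 h, including 20 h with pHrodo-myelin. Duplicate means are expressed as % of untreated control.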

[4] = system: HMC3 (human microglia) cell line; experiment: as above; settings: for 1. Cell count (% control) / 2. Nuclear Area (% Control) / 3. Nuclear DNA Intensity (% control): HMC3 cells, 10 uM compound, 48 hours treatment
How it was run: as §2

SMILES	4. Phagocytosis (% control) [1] [% control]	4. Phagocytosis (% control) [2] [% control]	1. Cell count (% control) [3] [% control]	2. Nuclear Area (% Control) [3] [% Control]	3. Nuclear DNA Intensity (% control) [3] [% control]	1. Cell count (% control) [4] [% control]	2. Nuclear Area (% Control) [4] [% Control]	3. Nuclear DNA Intensity (% control) [4] [% control]	cytotoxicity in mouse microglial cells (cell count < 70% control) [3]	cytotoxicity in human microglial cells (cell count < 70% control) [4]
C=C(c1ccc(C(=O)O)cc1)c1cc2c(cc1C)C(C)(C)CCC2(C)C [UNC10302949A]	117.0	79.3	91.0	109.3	95.6	131.9	99.3	94.9		
Cl.NCCOCCOCCNC(=O)Cc1ccc(Nc2nc(NCc3ccc(F)cc3)nc(NCC3CCCCC3)n2)cc1 [UNC10302950A]	232.8	36.3	46.4	117.0	104.0	97.2	95.7	118.1		
CC(C)CCC[C@@H](C)[C@H]1CC[C@H]2[C@@H]3CC[C@H]4C[C@H](N)CC[C@]4(C)[C@H]3CC[C@]12C [UNC10302970A]	160.9	40.9	18.3	108.5	93.1	97.2	81.8	134.0		
CCCCCOc1cc2c(cc1-c1cc(/C=C/C(=O)O)ccc1O)C(C)(C)CCC2(C)C [UNC10302971A]	103.8	107.7	104.0	103.5	104.7	103.0	101.2	101.8		
Cc1c(COc2cc(OCc3cccc(C#N)c3)c(CN3C[C@H](O)C[C@@H]3C(=O)O)cc2Cl)cccc1-c1ccc2c(c1)OCCO2 [UNC10302972A]	125.1	111.9	81.0	106.7	113.8	116.0	98.5	101.3		
N#CC(CCCN1CCN(/N=C/c2cccnc2)CC1)(c1ccccc1)c1ccccc1 [UNC10302973A]	132.9	84.2	73.0	106.0	96.8	118.4	102.3	89.1		
Cl.O=C(O)Cc1cccc(OCCCN(Cc2cccc(C(F)(F)F)c2Cl)CC(c2ccccc2)c2ccccc2)c1 [UNC10302974A]	136.8	78.3	123.1	107.6	102.2	138.8	100.4	95.2		
CCn1c(=O)/c(=C2\Sc3ccccc3N2C)s/c1=C\c1ccccn1 [UNC10302975A]	118.8	87.9	107.1	104.2	108.3	120.1	99.3	95.9		
O=S(=O)(c1ccc2c(c1)C(=NO)c1cc(S(=O)(=O)N3CCCCC3)ccc1-2)N1CCCCC1 [UNC10302976A]	51.8	12.0	11.0	116.9	256.7	69.8	63.2	194.1		
CCN(C)C(=O)Oc1cccc([C@H](C)N(C)C)c1 [UNC10303091A]	166.0	80.4	139.1	103.4	100.1	141.4	98.9	95.5		
CN1C(N)=N[C@](C)(c2cc(NC(=O)c3ccc(F)cn3)ccc2F)CS1(=O)=O [UNC10303092A]	127.2	104.7	104.0	108.1	102.5	119.4	99.5	97.7		
O=c1ncn2nc(Sc3ccc(F)cc3F)ccc2c1-c1c(Cl)cccc1Cl [UNC10303093A]	151.8	71.1	114.5	100.4	110.5	125.9	98.4	98.8		
CC[C@H](C)[C@H](N)C(=O)NCCN1CCOCC1.Cl.Cl [UNC10303094A]	157.3	75.5	133.1	103.4	103.6	133.1	103.2	95.9		
CC(C)[C@H](O)C(=O)N[C@@H](C)C(=O)N[C@@H]1C(=O)N(C)CCc2ccccc21 [UNC10303095A]	150.0	70.8	134.6	102.1	104.4	156.2	97.1	97.3		
CN(C)CC1CCOC1(c1ccccc1)c1ccccc1.Cl (stereo not shown) [UNC10303096A]	256.6	111.9	103.1	105.3	104.2	129.8	100.5	94.9		
CN(C)c1ccc2c(c1)Sc1cc(N(C)C)ccc1N2.CS(=O)(=O)O.CS(=O)(=O)O [UNC10303097A, reference compound]	102.3	6.7	14.2	111.0	58.9	59.1	75.8	120.7	manifested toxicity in both microglial cell lines	manifested toxicity in both microglial cell lines
